According to patent publication US11178870B2 (priority 2017, dated 2021):
Read-outs that look alike come from different tables or passages of the source.

How the values were obtained:
Magnaporthe grisea = assay: whole plant or invertebrate; assay type: in vivo; conditions: Pyricularia oryzae, in Oryza sativa
Plasmopara viticola = assay: Test Example G: Downy mildew on vine; assay type: in vivo
Botrytis cinerea = assay: Test Example B: Gray mold on tomato; assay type: in vivo
Phytophthora infestans = assay: whole plant or invertebrate; assay type: in vivo; conditions: in Solanum lycopersicum
Alternaia brassicicola = assay: Test Example C: Alternaria sooty spot on cabbage; assay type: in vivo; conditions: Brassica oleracea
[1] = system: Blumeria graminis f. sp. hordei; assay: Test Example D: Powdery mildew on barley; assay type: in vivo
Puccinia recondita = assay: Test Example E: Brown rust on wheat; assay type: in vivo
[2] = system: Colletotrichum orbiculare; assay: whole plant or invertebrate; conditions: in Cucumis sativus, read-out: control value, Test H (anthracnose on cucumber)
Description: Seeds of a test plant (cucumber variety: Sagami Hanjiro) were planted and cultivated until the first leaf appeared. In the test, the compounds of the present invention were dissolved into a dimethyl sulfoxide-methanol mixture solution (volume ratio: 9/1), and the resultant solutions were diluted with well water to a concentration of 250 ppm. The thus-obtained dilutions were sprayed to the test plant (2.5 ml/pot). After the dilutions dried, a conidial suspension (2-4×10^5 conidia/ml) of Colletotrichum orbiculare was inoculated to the plant by spraying. After the inoculation, the plant was kept in a mist chamber at room temperature of 20 to 23° C. for about 24 hours to promote the onset of disease. The disease development was investigated 6 to 10 days after the inoculation, and the effectiveness of the dilutions was evaluated.
Disease development in Test Example described above was evaluated in increments of 0.05 by setting 0 as no incidence of disease and 3 as disease development in a plant of untreated group. In addition, control values were calculated using the following equation based on disease development.
Control value=100 {1−(n/3)}
n=Disease development of each treated groups

[3] = Downy mildew on vine, 250 ppm sprayed, 2.5 ml/pot, 7 to 10 days after inoculation, read-out: Test G control value
[4] = Gray mold on tomato, read-out: Test B control value
[5] = Alternaria sooty spot on cabbage, read-out: Test C control value
[6] = Powdery mildew on barley, read-out: Test D control value
[7] = Brown rust on wheat, read-out: Test E control value
[8] = read-out: control value, Test A (blast on rice)
[9] = 250 ppm sprayed (2.5 ml/pot) before inoculation, assessed 7 to 10 days after inoculation, read-out: control value, Test G (downy mildew on vine)
[10] = Table 7, Test B, read-out: control value, Test B (gray mold on tomato)
[11] = read-out: control value, Test F (late blight on tomato)
[12] = Table 7, Test C, read-out: control value, Test C (Alternaria sooty spot on cabbage)
[13] = Table 7, Test D, read-out: control value, Test D (powdery mildew on barley)
[14] = Table 7, Test E, read-out: control value, Test E (brown rust on wheat)

SMILES	pest or weed control at 250 µg/mL (Magnaporthe grisea; read-out: Test A control value) [%]	pest or weed control at 250 ppm (Plasmopara viticola; [3]) [%]	pest or weed control at 250 µg/mL (Botrytis cinerea; [4]) [%]	pest or weed control at 250 µg/mL (Phytophthora infestans; read-out: Test F control value) [%]	pest or weed control at 250 µg/mL (Alternaia brassicicola; [5]) [%]	pest or weed control at 250 µg/mL [1, 6] [%]	pest or weed control at 250 µg/mL (Puccinia recondita; [7]) [%]	pest or weed control at 250 µg/mL (Magnaporthe grisea; [8]) [%]	pest or weed control at 250 ppm (Plasmopara viticola; [9]) [%]	pest or weed control at 250 µg/mL (Botrytis cinerea; [10]) [%]	pest or weed control at 250 µg/mL (Phytophthora infestans; [11]) [%]	pest or weed control at 250 µg/mL (Alternaia brassicicola; [12]) [%]	pest or weed control at 250 µg/mL [1, 13] [%]	pest or weed control at 250 µg/mL (Puccinia recondita; [14]) [%]	pest or weed control at 250 ppm [2] [%]	pest or weed control at 250 µg/mL (Botrytis cinerea; in Solanum lycopersicum, Table 7, Test B, read-out: control value, Test B (gray mold on tomato)) [%]	pest or weed control at 250 µg/mL ([1]; in Hordeum vulgare, Table 7, Test D, read-out: control value, Test D (powdery mildew on barley)) [%]	pest or weed control at 250 µg/mL (Puccinia recondita; in Triticum aestivum, Table 7, Test E, read-out: control value, Test E (brown rust on wheat)) [%]
CCn1c(-c2c(F)cc(F)cc2F)c(-c2cnco2)cc(Cl)c1=O [compound 36, 3-chloro-1-ethyl-5-(oxazol-5-yl)-6-(2,4,6-trifluorophenyl)pyridin-2(1H)-one]	> 50	< 50	< 50	< 50	> 50	< 50	> 50											
CCn1c(-c2c(F)cc(F)cc2F)c(-n2cc(Cl)cn2)cc(Cl)c1=O [compound 40, 3-chloro-5-(4-chloro-1H-pyrazol-1-yl)-1-ethyl-6-(2,4,6-trifluoro-phenyl)pyridin-2(1H)-one]	> 50	< 50	> 50	< 50	> 50	> 50	> 50											
CCn1c(-c2c(F)cc(OC)cc2F)c(-n2cc(Cl)cn2)cc(Cl)c1=O [compound 41, 3-chloro-5-(4-chloro-1H-pyrazol-1-yl)-6-(2,6-difluoro-4-methoxyphenyl)-1-ethylpyridin-2(1H)-one]	> 50	< 50	> 50	< 50	> 50	> 50	> 50											
CCn1c(-c2c(F)cccc2F)c(-c2ocnc2C)cc(Cl)c1=O [compound 43, 3-chloro-6-(2,6-difluorophenyl)-1-ethyl-5-(4-methyloxazol-5-yl)pyridin-2(1H)-one]	> 50	< 50	> 50	< 50	> 50	> 50	> 50											
CCn1c(-c2c(F)cc(F)cc2F)c(-n2cc(Br)cn2)cc(Cl)c1=O [compound 70, 5-(4-bromo-1H-pyrazol-1-yl)-3-chloro-1-ethyl-6-(2,4,6-trifluorophenyl)pyridin-2(1H)-one]	> 50	< 50	> 50	< 50	> 50	> 50	> 50											
CCn1c(-c2c(F)cc(F)cc2F)c(-n2cc(Cl)cn2)cc(Br)c1=O [compound 71, 5-(4-chloro-1H-pyrazol-1-yl)-1-ethyl-3-bromo-6-(2,4,6-trifluoro-phenyl)pyridin-2(1H)-one]	> 50	< 50	> 50	< 50	> 50	> 50	> 50											
CCn1c(-c2c(F)cc(OC)cc2F)c(-n2cc(Br)cn2)cc(Cl)c1=O [compound 72, 5-(4-bromo-1H-pyrazol-1-yl)-3-chloro-6-(2,6-difluoro-4-methoxyphenyl)-1-ethylpyridin-2(1H)-one]	> 50	< 50	> 50	< 50	> 50	> 50	> 50											
CCn1c(-c2c(F)cccc2F)c(-c2c[nH]cc2C#N)cc(Cl)c1=O [compound 88, 4-(5-chloro-1-ethyl-6-oxo-2-(2,6-difluorophenyl)-1,6-dihydro-pyridin-3-yl)-1H-pyrrol-3-carbonitrile]	< 50	< 50	< 50	< 50	> 50	< 50	< 50											
CCn1c(-c2c(F)cc(F)cc2F)c(-c2ocnc2Cl)cc(Cl)c1=O [compound 112, 3-chloro-5-(4-chlorooxazol-5-yl)-1-ethyl-6-(2,4,6-trifluoro-phenyl)pyridin-2(1H)-one]	> 50	> 50	> 50	< 50	> 50	> 50	> 50											
CCn1c(-c2c(F)cc(F)cc2F)c(-n2cnc(Cl)c2Cl)ccc1=O [compound 136, 5-(4,5-dichloro-1H-imidazol-1-yl)-1-ethyl-6-(2,4,6-trifluorophenyl)pyridin-2(1H)-one]	> 50	> 50	> 50	< 50	> 50	> 50	> 50											
CCn1c(-c2c(F)cc(F)cc2F)c(-n2cnc(Cl)c2Cl)cc(Cl)c1=O [compound 138, 3-chloro-5-(4,5-dichloro-1H-imidazol-1-yl)-1-ethyl-6-(2,4,6-trifluorophenyl)pyridin-2(1H)-one]	> 50	< 50	> 50	< 50	> 50	> 50	> 50											
CCn1c(-c2c(F)cc(F)cc2F)c(-n2cc(Cl)cn2)cc(I)c1=O [compound 140, 5-(4-chloro-1H-pyrazol-1-yl)-1-ethyl-3-iodo-6-(2,4,6-trifluoro-phenyl)pyridin-2(1H)-one]	< 50	< 50	> 50	< 50	> 50	> 50	> 50											
CCn1c(-c2c(F)cc(O)cc2F)c(-n2cc(Cl)cn2)cc(Cl)c1=O [compound 184, 3-chloro-5-(4-chloro-1H-pyrazol-1-yl)-6-(2,6-difluoro-4-hydroxyphenyl)-1-ethylpyridin-2(1H)-one]								< 50	> 50	> 50	< 50	> 50	< 50	> 50	> 50			
C#CCOc1cc(F)c(-c2c(-n3cc(Cl)cn3)cc(Cl)c(=O)n2CC)c(F)c1 [compound 201, 3-chloro-5-(4-chloro-1H-pyrazol-1-yl)-6-(2,6-difluoro-4-(propargyloxy)phenyl)-1-ethyl pyridin-2(1H)-one]								> 50	< 50	> 50	< 50	> 50	> 50	> 50	> 50			
C=CCOc1cc(F)c(-c2c(-n3cc(Cl)cn3)cc(Cl)c(=O)n2CC)c(F)c1 [compound 202, 6-(4-(allyloxy)-2,6-difluorophenyl)-3-chloro-5-(4-chloro-1H-pyrazol-1-yl)-1-ethylpyridin-2(1H)-one]								> 50	< 50	> 50	< 50	> 50	> 50	> 50	> 50			
CCn1c(-c2c(F)cc(OCCOC)cc2F)c(-n2cc(Cl)cn2)cc(Cl)c1=O [compound 204, 3-chloro-5-(4-chloro-1H-pyrazol-1-yl)-6-(2,6-difluoro-4-(2-methoxyethoxy)phenyl)-1-ethylpyridin-2(1H)-one]								< 50	< 50	> 50	< 50	> 50	< 50	< 50	> 50			
CCn1c(-c2c(F)cc(OC(C)=O)cc2F)c(-n2cc(Cl)cn2)cc(Cl)c1=O [compound 205]								< 50	< 50		< 50	> 50			< 50	> 50	< 50	> 50
CCn1c(-c2c(F)cc(F)cc2F)c(-n2cc(Cl)cn2)cc(C)c1=O [compound 206, 5-(4-chloro-1H-pyrazol-1-yl)-1-ethyl-3-methyl-6-(2,4,6-trifluoro-phenyl)pyridin-2(1H)-one]								> 50	< 50	> 50	< 50	> 50	> 50	> 50	> 50			
